Test results taken from patent US20030180797A1, “Identification of ligands for a receptor family and related methods” (priority 2002, published 2003).
Values joined by “and” are separate entries in the source; they are usually repeats but may differ in a detail not shown here. Equal entries are not always repeated.

Key:
Type in all cases: biochemical
ADH from Bakers Yeast = target: T1, ADH from Bakers Yeast (Saccharomyces cerevisiae, UniProt P00330); assay: Alcohol dehydrogenase (ADH) kinetic spectrophotometric assay, NAD+ reduction; conditions: Cibacron Blue at 15.5 μM; read-out: inhibition of ADH, positive control
T1 sequence (P00330 1-348): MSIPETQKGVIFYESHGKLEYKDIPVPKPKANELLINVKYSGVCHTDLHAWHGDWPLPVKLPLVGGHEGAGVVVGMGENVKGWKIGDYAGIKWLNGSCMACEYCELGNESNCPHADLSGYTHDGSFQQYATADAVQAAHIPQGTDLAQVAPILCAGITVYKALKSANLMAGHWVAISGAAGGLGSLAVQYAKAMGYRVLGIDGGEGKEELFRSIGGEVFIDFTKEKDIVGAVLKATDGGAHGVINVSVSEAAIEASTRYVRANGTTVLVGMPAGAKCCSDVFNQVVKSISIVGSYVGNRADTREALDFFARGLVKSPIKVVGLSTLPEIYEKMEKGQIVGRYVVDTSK
Description: Inhibitor solutions were prepared in DMSO so that, when diluted, the inhibitor concentration was 100 μM and the final DMSO concentration was adjusted to 5%. […] The reaction was then initiated with 10 μl of ADH from Bakers Yeast (Saccharomyces cerevisiae) (3.3 μg/ml; 1:400 dilution of 1.0 mg/ml). […] Reading of the samples was continued until 300 seconds.
Where only a simple read was desired, as in the case of NAD+ concentration determination, 13 μl (10 M stock) of ethanol was used to drive the reaction, and 10 μl of pure enzyme (1 mg/ml) was used. NAD+ was soluble at 2 mM. In this situation, the procedure was as follows. All of the ingredients except for the enzyme were mixed together. The solution was mixed well and the absorbance at 340 nm read. The enzyme was added and read again at OD 340 after the absorbance stopped changing, generally 10 to 15 minutes after the enzyme was added.

[1] = target: DOXP reductoisomerase from E. coli (Escherichia coli, UniProt P45568); assay: 1-Deoxy-D-xylulose-5-phosphate reductoisomerase (DOXPR) kinetic spectrophotometric assay, NADPH oxidation; conditions: Cibacron Blue at 10.32 μM; read-out: inhibition of DOXPR, positive control
Description: DOXPR was diluted in 10 mM HEPES, pH 7.4.
Solutions of the inhibitors in DMSO were prepared to provide a final DMSO concentration of 5%. […] 1.15 mM DOXP, and 8 μM NADPH. The reaction was then initiated with 10 μl of DOXP reductoisomerase (also known as DOXP reductase) from E. coli (10 μg/ml; 1:200 diilution of 2 mg/ml stock solution).
(§1) When bi-ligands were screened, the substrate concentration and NADPH or NADH concentrations were kept near their Km values. When assaying common ligands (CLMs), the substrate concentration was increased to at least 10 times the Km. If the compounds assayed were specificity ligands (substrate mimics), the NAPDH or NADH concentration was increased.

LDH from Rabbit Muscle = target: T2, LDH from Rabbit Muscle (Oryctolagus cuniculus, UniProt P13491); assay: Lactate dehydrogenase (LDH) kinetic spectrophotometric assay, NADH oxidation; conditions: Cibacron Blue at 10.3 mM; read-out: inhibition of LDH, positive control
T2 construct: 10 μl of diluted LDH from Rabbit Muscle; from tissue; host or cells: rabbit muscle
Description: [table] […] These solutions were incubated for 6 minutes at 25° C. in 990 μl of a solution containing 0.1 M HEPES, pH 7.4, […], and 2.5 mM of pyruvate. The reaction was then initiated with 10 μl of diluted LDH from Rabbit Muscle (0.5 μg/ml; 1:2000 dilution of 1.0 mg/ml stock solution). […] Reading of the samples was continued until 300 seconds. […] When bi-ligands were screened, the substrate concentration and NADPH or NADH concentrations were kept near their Km values. […] If the compounds assayed were specificity ligands (substrate mimics), the NAPDH or NADH concentration was increased.

human DHFR = target: T3, human DHFR (Homo sapiens, UniProt P00374); assay: Dihydrofolate reductase (DHFR) kinetic spectrophotometric assay; conditions: Cibacron Blue at 3 μM; read-out: inhibition of DHFR, positive control
T3 sequence (P00374 1-187): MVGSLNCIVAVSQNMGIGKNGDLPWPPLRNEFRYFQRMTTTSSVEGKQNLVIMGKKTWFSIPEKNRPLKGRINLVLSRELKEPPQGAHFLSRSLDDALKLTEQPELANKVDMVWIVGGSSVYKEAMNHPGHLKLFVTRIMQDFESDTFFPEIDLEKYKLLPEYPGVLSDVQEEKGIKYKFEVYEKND
Description: H2 folate was dissolved in DMSO to about 10 mM and then diluted with water to a concentration of 0.1 mM.
Inhibitor solutions were prepared in DMSO so that, when diluted, the inhibitor concentration was 100 μM and the final DMSO concentration was adjusted to 5%. […] The reaction was then initiated with 8 μl of human DHFR (0.047 mg/ml; 1:85 dilution of 4 mg/ml stock solution). After the enzyme was added, the reaction was run for 10 minutes.
as §1

E. coli DHPR enzyme [2] = target: T4, E. coli DHPR enzyme (Escherichia coli, UniProt P04036); assay: Dihydrodipicolinate reductase (DHPR) kinetic spectrophotometric assay, NADPH oxidation at 340 nm; conditions: for IC50: bi-ligands and pyridine dicarboxylate derivatives, Example VII, FIG. 8
Description: DHPR was diluted in 10 mM HEPES, pH 7.4. Dihydrodipicolinate synthase (DHPS) was not diluted and was stored in eppendorf tubes.
The L-aspartate semialdehyde (L-ASA) solution was prepared in the following manner. A 180 μM stock solution of ASA was prepared. 100 μl of the ASA stock solution was mixed with 150 μl of concentrated NaHCO3 and 375 μl of H2O. […] The L-ASA stock solution was kept at a temperature of −20° C. After dilution, the pH of the 28.8 mM solution was checked and maintained between pH 1 to 2.
The solution for background detection was a 945 μl solution containing 0.1 M HEPES, pH 7.8, 1 mM pyruvate, 6 μM NADPH, 40 μM L-ASA, and 7 μl of 1 mg/ml DHPS at 25° C. in the volumes indicated above. The sample solution was then mixed and incubated for 10 minutes. Inhibitor solutions (500 nM or 100 μM final concentration) and enough dimethylsulfoxide (DMSO) to provide a final DMSO concentration of 5% were added. The solution was mixed and incubated for an additional 6 minutes.
In DHPR samples, the DHPR stock solution was diluted and 5 μl of diluted E. coli DHPR enzyme (1:1000 dilution of 1 mg/ml stock) were added. The sample was mixed for 20 seconds, and then the reaction was run for […]. […] Reading of the samples was continued until 300 seconds.
For assaying bi-ligands, the substrate concentration and the NADPH or NADH concentration were kept near their Km values. […] If substrate mimics (specificity ligands) were tested, the NADPH or NADH concentration was increased.

E. coli DHPR enzyme [3] = target: T4, E. coli DHPR enzyme; assay: as above; conditions: read-out: inhibition of DHPR activity

T4 sequence (P04036 whole entry): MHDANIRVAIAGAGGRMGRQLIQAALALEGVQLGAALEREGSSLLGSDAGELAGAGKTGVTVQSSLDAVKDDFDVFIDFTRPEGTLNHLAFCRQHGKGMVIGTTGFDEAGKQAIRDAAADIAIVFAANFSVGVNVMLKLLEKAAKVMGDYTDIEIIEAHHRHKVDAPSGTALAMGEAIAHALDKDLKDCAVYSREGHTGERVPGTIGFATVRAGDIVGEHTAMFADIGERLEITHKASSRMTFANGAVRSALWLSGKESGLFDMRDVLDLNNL
Chain of DOXP reductoisomerase from E. coli (P45568 whole entry): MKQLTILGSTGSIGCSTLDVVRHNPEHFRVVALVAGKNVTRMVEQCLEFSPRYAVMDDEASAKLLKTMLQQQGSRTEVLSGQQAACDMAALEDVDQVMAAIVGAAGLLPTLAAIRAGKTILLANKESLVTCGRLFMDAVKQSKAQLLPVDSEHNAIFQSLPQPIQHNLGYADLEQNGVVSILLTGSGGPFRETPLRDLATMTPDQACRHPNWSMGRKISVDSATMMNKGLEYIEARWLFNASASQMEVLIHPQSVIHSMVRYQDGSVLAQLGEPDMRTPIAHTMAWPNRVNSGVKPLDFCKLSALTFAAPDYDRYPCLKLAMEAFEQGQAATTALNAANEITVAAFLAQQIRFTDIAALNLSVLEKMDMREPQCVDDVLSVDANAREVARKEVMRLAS

| Compound | IC50 (E. coli DHPR enzyme [2]) | other results |
| --- | --- | --- |
| Nc1c(S(=O)(=O)O)cc(Nc2ccc(Nc3nc(Cl)nc(Nc4ccccc4S(=O)(=O)O)n3)c(S(=O)(=O)O)c2)c2c1C(=O)c1ccccc1C2=O [Cibacron Blue] |  | inhibition at 15.5 µM (ADH from Bakers Yeast): 50 to 60%; inhibition at 10.32 µM [1]: 70 to 80%; inhibition at 10300 µM (LDH from Rabbit Muscle): 50 to 70%; inhibition at 3 µM (human DHFR): 50 to 70%; inhibition at 2580 µM (E. coli DHPR enzyme [2]; read-out: inhibition of DHPR, positive control): 70 to 80% |
| O=C1NC(=O)C(=Cc2ccc(-c3ccc(C(=O)NCCSc4cc(C(=O)O)nc(C(=O)O)c4)cc3)o2)S1 [compound 12a, 4-(2-{4-[5-(2,4-dioxo-thiazolidin-5-ylidenemethyl)-furan-2-yl]-benzoylamino}-ethylsufanyl)-pyridine-2,6-dicarboxylic acid] | ~0.536 µM |  |
| O=C1NC(=S)SC1=Cc1ccc(-c2ccc(C(=O)NCCSc3cc(C(=O)O)nc(C(=O)O)c3)cc2)o1 [compound 12b, 4-(2-{4-[5-(4-oxo-2-thioxo-thiazolidin-5-ylidenemethyl)-furan-2-yl]-benzoylamino}-ethylsulfanyl)-pyridine-2,6-dicarboxylic acid] | ~7.1 µM |  |
| O=C1NC(=O)C(=Cc2ccc(-c3cccc(C(=O)NCCSc4cc(C(=O)O)nc(C(=O)O)c4)c3)o2)S1 [compound 12c, 4-(2-{3-[5-(2,4-dioxo-thiazolidin-5-ylidenemethyl)-furan-2-yl]-benzoylamino}-ethylsulfanyl)-pyridine-2,6-dicarboxylic acid] | ~13 µM |  |
| O=C1NC(=S)SC1=Cc1ccc(-c2cccc(C(=O)NCCSc3cc(C(=O)O)nc(C(=O)O)c3)c2)o1 [compound 12d, 4-(2-{3-[5-(4-oxo-2-thioxo-thiazolidin-5-ylidenemethyl)-furan-2-yl]-benzoylamino}-ethylsulfanyl)-pyridine-2,6-dicarboxylic acid] | ~0.254 µM |  |
| O=C1NC(=O)C(=Cc2ccc(-c3ccc(O)c(C(=O)NCCSc4cc(C(=O)O)nc(C(=O)O)c4)c3)o2)S1 [compound 12f, 4-(2-{5-[5-(2,4-dioxo-thiazolidin-5-ylidenemethyl)-furan-2-yl]-2-hydroxy-benzoylamino}-ethylsulfanyl)-pyridine-2,6-dicarboxylic acid] | ~4.91 µM |  |
| N=C1NC(=O)C(=Cc2ccc(O)c(C(=O)NCCSc3cc(C(=O)O)nc(C(=O)O)c3)c2)S1 [compound 16a, 4-{2-[2-hydroxy-5-(2-imino-4-oxo-thiazolidin-5-ylidenemethyl)-benzoylamino]-ethylsulfanyl}-pyridine-2,6-dicarboxylic acid] | ~8.2 µM and ~15.5 µM |  |
| N=C1NC(=O)C(=Cc2cccc(C(=O)NCCSc3cc(C(=O)O)nc(C(=O)O)c3)c2)S1 [compound 16b, 4-{2-[3-(2-imino-4-oxo-thiazolidin-5-ylidenemethyl)-benzoylamino]-ethylsulfanyl}-pyridine-2,6-dicarboxylic acid] | ~1.02 µM |  |
| N=C1NC(=O)C(=Cc2ccc(C(=O)NCCSc3cc(C(=O)O)nc(C(=O)O)c3)cc2)S1 [compound 16c, 4-{2-[4-(2-imino-4-oxo-thiazolidin-5-ylidenemethyl)-benzoylamino]-ethylsulfanyl}-pyridine-2,6-dicarboxylic acid] | ~33 µM |  |
| O=C(NCCSc1cc(C(=O)O)nc(C(=O)O)c1)c1ccc(-c2ccc(-c3nc4cc([N+](=O)[O-])ccc4[nH]3)o2)cc1 [compound 21a, 4-(2-{4-[5-(5-nitro-1H-benzoimidazol-2-yl)-furan-2-yl]-benzoylamino}-ethylsulfanyl)-pyridine-2,6-dicarboxylic acid] | ~0.758 µM |  |
| CC(=O)NCCSc1cc(C(=O)O)nc(C(=O)O)c1 [compound 22, 4-(2-acetylamino-ethylsulfanyl)-pyridine-2,6-dicarboxylic acid] |  | inhibition at 800 µM (E. coli DHPR enzyme [3]): ~31% |
| O=C(NCCSc1cc(C(=O)O)nc(C(=O)O)c1)c1ccccc1 [compound 23, 4-(2-benzoylamino-ethylsulfanyl)-pyridine-2,6-dicarboxylic acid] | 78.3 µM |  |
| O=C(O)c1cc(SCCNC(=O)c2cc3cccc(O)c3cc2O)cc(C(=O)O)n1 [compound 24, 4-{2-[(3,5-dihydroxy-naphthalene-2-carbonyl)-amino]-ethylsulfanyl}-pyridine-2,6-dicarboxylic acid] | 2 µM |  |
